Reference: patent US20260115185A1, “QUINOLINE DERIVATIVES WHICH ACT AS KAPPA-OPIOID RECEPTOR ANTAGONISTS” (The Scripps Research Institute, priority 2023, published 2026)

Key:
[1] = target: T1, kappa opioid receptor (KOR) (Homo sapiens, UniProt P41145); assay: OPRKappa 1 Tango B-Arrestin Assay, antagonist mode (Tango OPRK1-bla U2OS cells, U50488 EC80 challenge); type: cell-based; conditions: for Selectivity (MOR/KOR): Kappa selectivity, MOR IC50 / KOR IC50; for IC50: antagonist mode, Tango OPRK1-bla U2OS cells, 6 nM U50488 challenge
T1 construct: host or cells: U2OS (Tango OPRK1-bla U2OS)
Outline: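 Tango OPRK1-bla U2OS cells, β-arrestin recruitment read as β-lactamase FRET (CCF4-AM, 460/590 nm emission). Compounds, 10-point 1:3 series from nominal 10 µM in quadruplicate, preincubated 30 min at 37 °C, then challenged with U50488 at 6 nM final (EC80) for 4 h; percent inhibition from median ratio.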

[2] = target: T2, mu opioid receptor (MOR) (Homo sapiens, UniProt P35372); assay: OPRMu1 Discover X β-arrestin Assay, antagonist mode (U2OS cells, DAMGO EC80 challenge); type: cell-based
T2 construct: host or cells: U2OS (Discover X OPRMu1-U2OS, PathHunter)
Outline: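 PathHunter U2OS cells with β-gal fragment-complementation readout for β-arrestin recruitment to OPRMu1. Cells were preincubated with compound (10-point, 1:3 series from nominal 10 micromolar) for 30 min at 37 °C, then challenged with 303 nM DAMGO (EC80) for 3 h. Luminescence gave percent inhibition.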

T1 sequence (P41145 whole entry): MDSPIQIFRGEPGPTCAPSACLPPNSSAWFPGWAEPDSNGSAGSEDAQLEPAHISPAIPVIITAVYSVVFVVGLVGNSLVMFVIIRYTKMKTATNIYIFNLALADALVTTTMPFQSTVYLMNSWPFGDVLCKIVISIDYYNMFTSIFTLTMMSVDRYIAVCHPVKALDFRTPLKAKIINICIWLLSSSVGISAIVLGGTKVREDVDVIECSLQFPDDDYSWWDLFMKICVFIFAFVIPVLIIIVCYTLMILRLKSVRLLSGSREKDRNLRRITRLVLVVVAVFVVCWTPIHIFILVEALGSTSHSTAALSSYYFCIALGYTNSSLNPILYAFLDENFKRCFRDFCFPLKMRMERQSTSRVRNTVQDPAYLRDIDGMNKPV
T2 sequence (P35372 whole entry): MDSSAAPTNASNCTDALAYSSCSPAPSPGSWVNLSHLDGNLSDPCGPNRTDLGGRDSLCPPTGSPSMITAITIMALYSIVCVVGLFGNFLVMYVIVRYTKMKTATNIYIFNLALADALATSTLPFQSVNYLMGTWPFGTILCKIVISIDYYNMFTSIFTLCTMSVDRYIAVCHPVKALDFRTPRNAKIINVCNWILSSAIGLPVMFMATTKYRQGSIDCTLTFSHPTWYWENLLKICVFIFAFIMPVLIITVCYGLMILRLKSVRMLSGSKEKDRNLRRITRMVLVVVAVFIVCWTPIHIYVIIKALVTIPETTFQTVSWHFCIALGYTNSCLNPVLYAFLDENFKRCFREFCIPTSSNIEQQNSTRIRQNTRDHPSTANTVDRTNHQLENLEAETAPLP

| Compound | Selectivity (MOR/KOR) [1] | IC50 [1] [nM] | IC50 [2] [nM] |
| --- | --- | --- | --- |
| CCc1cc(-c2cc(C)nn2C)c2nc(N3CC[C@H](NC4CCOCC4)[C@H](F)C3)c(-c3ccn(C)n3)c(C)c2c1 [Compound 96] | +++ (between 100- to 1000-fold selective) | 1 to 10 | > 1000 |
| CCc1cc(F)c2nc(N3CCN(C(=O)CN(C)C)C[C@H]3C)c(-c3nc(C)no3)c(C)c2c1 [Compound 44] | +++ (between 100- to 1000-fold selective) | 10 to 100 | > 1000 |
| CCc1cc(F)c2nc(N3CC[C@H](N[C@@H]4CCOC4)C[C@H]3C)c(-c3cc(C)no3)c(C)c2c1 [Compound 140] | +++ (between 100- to 1000-fold selective) | < 1 | 100 to 1000 |
| CCc1cc(-c2ccn(C)n2)c2nc(N3CCC(NC4CC(F)(F)C4)CC3)c(-c3nc(C)no3)c(C)c2c1 [Compound 103] | +++ (between 100- to 1000-fold selective) | 1 to 10 | > 1000 |
| CCc1cc(-c2ccnn2C)c2nc(N3CCN(C[C@H]4CCOC4)C[C@H]3C)c(-c3ccn(C)n3)c(C)c2c1 [Compound 98] | +++ (between 100- to 1000-fold selective) | 10 to 100 | > 1000 |
| CCc1cc(F)c2nc(N3CCN(C4CC5(COC5)C4)C[C@H]3C)c(-c3nc(C)no3)c(C)c2c1 [Compound 41] | +++ (between 100- to 1000-fold selective) | 10 to 100 | > 1000 |
| CCc1cc(F)c2nc(N3CC[C@@H](NC[C@@H]4CCOC4)[C@@H](F)C3)c(-c3ccn(C)n3)c(C)c2c1 [Compound 204] | ++++ (more than 1000-fold selectivity over MOR) | < 1 | 100 to 1000 |
| CCc1cc(-c2ccnn2C)c2nc(N3CCC(N[C@H]4CCOC[C@H]4F)CC3)c(-c3ccn(C)n3)c(C)c2c1 [Compound 21, 1-(6-ethyl-4-methyl-3-(1-methyl-1H-pyrazol-3-yl)-8-(1-methyl-1H-pyrazol-5-yl)quinolin-2-yl)-N-((3S,4S)-3-fluorotetrahydro-2H-pyran-4-yl)piperidin-4-amine] | ++ (between 10- and 100-fold selectivity) | 1 to 10 | 10 to 100 |
| CCc1cc(F)c2nc(N3CCN(C(=O)CN4CCCC4)C[C@H]3C)c(-c3nc(C)no3)c(C)c2c1 [Compound 47, (R)-1-(4-(6-ethyl-8-fluoro-4-methyl-3-(3-methyl-1,2,4-oxadiazol-5-yl)quinolin-2-yl)-3-methylpiperazin-1-yl)-2-(pyrrolidin-1-yl)ethan-1-one] | +++ (between 100- to 1000-fold selective) | 1 to 10 | 100 to 1000 |
| CCc1cc(F)c2nc(N3CCN(C[C@@H]4CCOC4)C[C@H]3C)c(-c3nc(C)no3)c(C)c2c1 [Compound 203] | +++ (between 100- to 1000-fold selective) | 10 to 100 | > 1000 |
| CCc1cc(F)c2nc(N3CC[C@@H](N[C@@H]4CCOC4)C[C@@H]3C)c(-c3ccn(C)n3)c(C)c2c1 [Compound 116] | ++++ (more than 1000-fold selectivity over MOR) | 1 to 10 | > 1000 |
| CCc1cc(-c2cc(C)nn2C)c2nc(N3CCC(N[C@@H]4CCOC4)CC3)c(-c3ccn(C)n3)c(C)c2c1 [Compound 95] | +++ (between 100- to 1000-fold selective) | < 1 | 10 to 100 |
| CCc1cc(F)c2nc(N3CC[C@H](NC4CCOCC4)[C@H](F)C3)c(-c3nn(C)cc3F)c(C)c2c1F [Compound 70] | +++ (between 100- to 1000-fold selective) | 1 to 10 | > 1000 |
| CCc1cc(F)c2nc(N3CC[C@H](N[C@@H]4CCOC4)[C@@H](C)C3)c(-c3ccn(C)n3)c(C)c2c1 [Compound 108] | +++ (between 100- to 1000-fold selective) | 1 to 10 | 100 to 1000 |
| CCc1cc(-c2ccnn2C)c2nc(N3CCC(N[C@H]4COC[C@H]4F)CC3)c(-c3ccn(C)n3)c(C)c2c1 [Compound 89] | ++ (between 10- and 100-fold selectivity) | 1 to 10 | > 1000 |
| CCc1cc(F)c2nc(N3CCN(C(=O)[C@H](C(C)C)N4CCCC4)C[C@H]3C)c(-c3nc(C)no3)c(C)c2c1 [Compound 152] | +++ (between 100- to 1000-fold selective) | 1 to 10 | > 1000 |
| CCc1cc(-c2ccn(C)n2)c2nc(N3CCNC[C@H]3C)c(-c3nc(C)no3)c(C)c2c1 [Compound 104] | +++ (between 100- to 1000-fold selective) | 10 to 100 | > 1000 |

| Compound | Selectivity (MOR/KOR) [1] | IC50 [1] [nM] | IC50 [2] [nM] |
| --- | --- | --- | --- |
| CCc1cc(-c2ccn(C)n2)c2nc(N3CCN(C(=O)C4CCOCC4)C[C@H]3C)c(-c3ccn(C)n3)c(C)c2c1 [Compound 101] | – | > 1000 | > 1000 |
| CCc1cc(F)c2nc(N3CC[C@@H]4[C@@H](CCN4C[C@@H]4CCCOC4)C3)c(-c3ccn(C)n3)c(C)c2c1 [Compound 128] | ++ (between 10- and 100-fold selectivity) | ≥ 100 | > 1000 |
| CCc1cc(F)c2nc(N3CC[C@H]4[C@H](CCN4C[C@@H]4CCOC4)C3)c(-c3ccn(C)n3)c(C)c2c1 (stereo in doubt) [Compound 129] | ++ (between 10- and 100-fold selectivity) | 10 to 100 | > 1000 |
| CCc1cc(F)c2nc(N3CC[C@H](N[C@@H]4CCOC4)[C@H](F)C3)c(-c3ccn(C)n3)c(C)c2c1 [Compound 194, (3R,4S)-1-(6-ethyl-8-fluoro-4-methyl-3-(1-methyl-1H-pyrazol-3-yl)quinolin-2-yl)-3-fluoro-N—((R)-tetrahydrofuran-3-yl)piperidin-4-amine] | +++ (between 100- to 1000-fold selective) | 1 to 10 | > 1000 |
| CCc1cc(F)c2nc(N3CCN(C(=O)[C@H](CO)N(C)C)C[C@H]3C)c(-c3nc(C)no3)c(C)c2c1 [Compound 162] | +++ (between 100- to 1000-fold selective) | 1 to 10 | > 1000 |
| CCc1cc(F)c2nc(N3CCN(C(=O)CN4CC[C@@H](O)C4)C[C@H]3C)c(-c3nc(C)no3)c(C)c2c1 [Compound 145] | ++++ (more than 1000-fold selectivity over MOR) | 1 to 10 | > 1000 |
| CCc1cc(F)c2nc(N3CCN(CC4CCOCC4)C[C@H]3C)c(-c3ccn(C)n3)c(C)c2c1 [Compound 2, (R)-6-ethyl-8-fluoro-4-methyl-3-(1-methyl-1H-pyrazol-3-yl)-2-(2-methyl-4-((tetrahydro-2H-pyran-4-yl)methyl)piperazin-1-yl)quinoline] | +++ (between 100- to 1000-fold selective) | 1 to 10 | > 1000 |
| CCc1cc(F)c2nc(N3CCN(C[C@@H]4CCOC4)C[C@H]3C)c(-c3ccn(C)n3)c(C)c2c1 [Compound 57] | ++ (between 10- and 100-fold selectivity) | ≥ 100 | > 1000 |
| CCc1cc(F)c2nc(N3CCN(C(=O)[C@@H]4CCCN4C)C[C@H]3C)c(-c3ccn(C)n3)c(C)c2c1 [Compound 175] | +++ (between 100- to 1000-fold selective) | 10 to 100 | > 1000 |
| CCc1cc(C#N)c2nc(N3CCC(NC4CC(F)(F)C4)CC3)c(-c3ccn(C)n3)c(C)c2c1 [Compound 79] | +++ (between 100- to 1000-fold selective) | 1 to 10 | > 1000 |
| CCc1cc(F)c2nc(N3CCN(C(=O)[C@@H](C)N(CC)CC)C[C@H]3C)c(-c3cc(C)no3)c(C)c2c1 [Compound 180] | +++ (between 100- to 1000-fold selective) | 1 to 10 | > 1000 |
| CCc1cc(F)c2nc(N3CCN(C(=O)[C@@H](C)N(CC)CC)C[C@H]3C)c(-c3ccn(C)n3)c(C)c2c1 [Compound 170] | +++ (between 100- to 1000-fold selective) | 10 to 100 | > 1000 |
| CCc1cc(F)c2nc(N3CCC(N[C@@H]4COC[C@@H]4F)CC3)c(-c3ccn(C)n3)c(C)c2c1 [Compound 71, 1-(6-ethyl-8-fluoro-4-methyl-3-(1-methyl-1H-pyrazol-3-yl)quinolin-2-yl)-N-((3R,4R)-4-fluorotetrahydrofuran-3-yl)piperidin-4-amine] | +++ (between 100- to 1000-fold selective) | 1 to 10 | > 1000 |
| CCc1cc(F)c2nc(N3CC[C@H]4[C@H](CCN4[C@@H]4CCOC4)C3)c(-c3ccn(C)n3)c(C)c2c1 [Compound 125] | ++++ (more than 1000-fold selectivity over MOR) | 1 to 10 | > 1000 |
| CCc1cc(F)c2nc(N3CCNC[C@H]3C)c(-c3ccn(C)n3)c(C)c2c1 [Compound 13, (R)-6-ethyl-8-fluoro-4-methyl-3-(1-methyl-1H-pyrazol-3-yl)-2-(2-methylpiperazin-1-yl)quinoline] | ++ (between 10- and 100-fold selectivity) | ≥ 100 | > 1000 |
| CCc1cc(F)c2nc(N3CCN(/C(=N/C#N)NC4CC(F)(F)C4)C[C@H]3C)c(-c3nc(C)no3)c(C)c2c1 [Compound 54] | +++ (between 100- to 1000-fold selective) | < 1 | 10 to 100 |
